From patent publication US12725802B2, “Aqueous rechargeable battery including organic positive active material” (Seoul National University R&DB Foundation, priority 2021, dated 2026)
≈ marks a conversion by molar mass, not a printed value. Where two headings read alike, the source gives them in different places.

Legend:
[1] = Visual observation of the solubility of DMPZ in various solvents (color change, naked eye); type: physicochemical; conditions: FIG. 3; for solubility: organic solvent or mixture, read-out: solubility (concentration dissolved)
From the text: DMPZ was respectively dissolved in various solvents, and color changes in the solutions were examined with the naked eye to evaluate dissolution degrees.

[2] = Analysis of solubility of positive active material in the electrolyte during cycle (electrode washed with new electrolyte, color; UV-visible spectroscopy); type: physicochemical; conditions: FIG. 7
Protocol: Each cell of Comparative Example 1 and Examples 1 and 2 was checked regarding how much the positive active materials were dissolved when the electrodes were taken out during the charge and washed with a new electrolyte, and the results are shown in FIG. 7.
FIG. 8 is a graph quantitatively analyzing amounts of DMPZ dissolved in each electrolyte of Comparative Example 1 and Examples 1 and 2. The cycled DMPZ electrode was re-wetted in the electrolyte, and ultraviolet (UV)-visible ray spectroscopy was performed with respect to solutions in each of the DMPZ^+ and DMPZ^2+ states to measure areas of an absorption spectrum and thus obtain each amount of DMPZ^+ and DMPZ^2+ dissolved out in the electrolyte. In FIG. 8, a vertical axis indicates the DMPZ state according to SOC, while a horizontal axis indicates a weight change as solubility (%). In FIG. 8, Comparative Example 1 is shown on the right, Example 1 is in the middle, and Example 2 is on the left.

CN1c2ccccc2N(C)c2ccccc21 [DMPZ, 5,10-dihydro-5,10-dimethylphenazine]
solubility ([1]; dimethyl carbonate (DMC)): ≥ 100 mM | solubility ([1]; propylene carbonate (PC)): ~20 mM (≈ 4.21 mg/mL) | solubility ([1]; tetraethylene glycol dimethyl ether (TEGDME)): ≥ 100 mM | solubility (dissolution) ([1]; water solvent): not dissolved in the water solvent at all | solubility in the electrolyte during the cycles ([2]; Comparative Example 1 electrolyte: 1 M NaClO4 in TEGDME, DMPZ, DMPZ+ (SOC 50) and DMPZ2+ (SOC 100)): high solubility | solubility in the electrolyte during the cycles ([2]; Example 1 electrolyte: 1 m NaClO4 and 0.5 m Zn(CF3SO3)2 in water, charged DMPZ (DMPZ+, DMPZ2+)): slightly dissolved | solubility in the electrolyte during the cycles ([2]; Example 2 electrolyte: 17 m NaClO4 and 0.5 m Zn(CF3SO3)2 in water, DMPZ, DMPZ+ and DMPZ2+): not dissolved at all
